Data published in US20240360154A1, “AROYL SUBSTITUTED TRICYCLIC COMPOUND, PREPARATION METHOD THEREFOR AND USE THEREOF” (GENFLEET THERAPEUTICS (SHANGHAI) INC., priority 2020, published 2024).

Assays:
OCI-LY10 cells = test: OCI-LY10 proliferation inhibition experiment; type: cell-based; settings: human diffuse large B lymphoma cells, three days incubation
Procedure: TMD-8 cells are human diffuse large B lymphoma (Mingzhou Bio, MZ-0832), cultured in 10% FBS+1% PS 1640 medium; OCI-LY10 is human diffuse large B lymphoma (BeNa Culture Collection, BNCC337742), cultured in 10% FBS+1% PS IMDM. Day 1: Cells at logarithmic growth phase were taken, counted and inoculated 600 TMD-8 or 2000 OCI-LY10 cells in a 384-well cell culture plate and cultured overnight. Day 2: A 3-fold gradient concentration stock solution of 400× compound was prepared with DMSO, and diluted 40-fold to a 10× compound stock solution with culture medium. The 10× compound stock solution was added to each cell culture well with a final concentration of 1× compound stock solution and a DMSO content of 0.25%. DMSO was used as experimental control, and culture medium was used as blank control. The incubation was continued for three days after compound addition. On the fifth day, 25 μL of […] was added to each well, mixed well and incubated for 10 minutes, then the chemiluminescence value (RLU value) was read. The cell proliferation inhibition rate (%)=(RLUcontrol−RLUcompound)/(RLUcontrol−RLUblank)×100% was calculated. The compound gradient dilution concentration and the corresponding cell proliferation inhibition rate were fit by using XLFit four-parameter method, and IC50 value was calculated.

p-BTK (WT) = p-BTK (WT) (Homo sapiens (Human), UniProt Q06187); test: p-BTK cell experiment, HEK293 transfected with WT-BTK plasmid (P-BTK Y223 sandwich ELISA); type: cell-based; settings: HEK293 cells, compound cultured for two hours
Chain of p-BTK (WT) (Q06187 whole entry): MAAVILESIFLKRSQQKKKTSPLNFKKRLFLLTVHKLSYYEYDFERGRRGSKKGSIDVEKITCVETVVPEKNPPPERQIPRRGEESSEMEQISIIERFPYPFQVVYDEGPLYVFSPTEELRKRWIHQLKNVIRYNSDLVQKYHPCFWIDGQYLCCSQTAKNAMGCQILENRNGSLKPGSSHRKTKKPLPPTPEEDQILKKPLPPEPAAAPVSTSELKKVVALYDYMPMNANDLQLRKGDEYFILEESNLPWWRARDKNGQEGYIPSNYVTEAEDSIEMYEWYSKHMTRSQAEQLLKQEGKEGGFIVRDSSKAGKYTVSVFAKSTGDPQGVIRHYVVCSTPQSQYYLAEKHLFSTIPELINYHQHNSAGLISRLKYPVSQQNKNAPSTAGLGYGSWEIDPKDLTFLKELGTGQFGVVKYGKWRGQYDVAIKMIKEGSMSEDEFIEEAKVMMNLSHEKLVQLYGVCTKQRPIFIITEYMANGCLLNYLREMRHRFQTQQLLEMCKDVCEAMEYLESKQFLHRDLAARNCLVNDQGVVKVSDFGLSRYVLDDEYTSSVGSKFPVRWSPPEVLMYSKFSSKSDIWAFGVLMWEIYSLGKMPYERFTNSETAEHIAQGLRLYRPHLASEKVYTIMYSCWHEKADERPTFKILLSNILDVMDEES
Procedure: (§1) Day 1: HEK293 cells (ADDEXBIO, T0011001) at logarithmic growth phase were taken, digested with enzyme EDTA, collected and counted, and 2E6 cells were inoculated in a 10 cm culture dish and cultured overnight. Day 2: A mixed solution containing 6 μg of WT-BTK/C481S-BTK plasmid and 18 μL of FuGENE HD transfection reagent was prepared by using 1000 μL of Opti-MEM. After standing at room temperature for 10 minutes, the mixed solution was slowly added to the culture dish with a pipettor and cultured overnight. Day 3: The culture dish was taken out, and the cells were digested with enzyme EDTA, collected and counted, and 1E4 cells were inoculated in a 96-well cell culture plate and cultured overnight. A 3.16-fold gradient concentration stock solution of 1000× compound was prepared using DMSO, and placed at room temperature. Day 4: A prepared 1000× compound stock solution was taken, and diluted 200-fold to 5× compound stock solution with culture medium. 5× compound stock solution was added to each cell culture well with a final concentration of 1× compound stock solution and a DMSO content of 0.1%. DMSO was used as an experimental control. After the compound was added and cultured for two hours, the residual culture medium was removed. 100 μL of cell lysis buffer was added to each well, stood on ice for 30 minutes, and ultrasonically lysed with ice water for 5 minutes. After diluting the cell lysate in proportion, 80 μL of the mixture was transfer to an ELISA plate, and 80 μL of cell lysis buffer was added to the blank well. After incubating in an incubator at 37° C. for 2 hours, the plate was taken and the antibody incubation and color development termination operation were completed according to the instructions of Pathscan P-BTK (Y223) Sandwich ELISA Kit (Cell Signaling #23843 CA), and finally the OD value was read. The inhibition rate of the compound (%)=(ODcontrol−ODcompound)/(ODcontrol−ODblank)×100% was calculated. The compound gradient dilution concentration and the corresponding cell proliferation inhibition rate were fit by using Prism 8 four-parameter method, and IC50 value was calculated.

BTK = BTK (Homo sapiens (Human), UniProt Q06187); test: BTK enzyme experiment (ADP-Glo kinase assay); type: biochemical; settings: 10 nM BTK, ATP 125 μM, Poly(Glu4, Tyr1), 90 minutes at 20° C.; read-out: BTK(WT) IC50
Chain of BTK (Q06187 whole entry): as above
Summary of the method: (§2)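 Wild-type or C481S BTK, added as 2× solution at 10 nM, preincubated 10 min with 3-fold compound dilutions in 50 mM HEPES pH 7.5, 10 mM MgCl2, 2 mM DTT, 0.0015% Brij-35. ADP-Glo luminescence norm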

TMD-8 cells = test: TMD-8 proliferation inhibition experiment; type: cell-based; settings: human diffuse large B lymphoma cells, three days incubation
Summary of the method: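 Log-phase cells seeded in 384-well plates (600 TMD-8 in RPMI 1640, 2000 OCI-LY10 in IMDM, both 10% FBS), then exposed one day later to 3-fold compound dilutions at 0.25% DMSO for three days. ADP-Glo luminescence read; inhibition versus DMSO and medium-only blank, IC50 by four-parameter fit.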

p-BTK (C481S) = p-BTK (C481S) (Homo sapiens (Human), UniProt Q06187, C481S); test: p-BTK cell experiment, HEK293 transfected with C481S-BTK plasmid (P-BTK Y223 sandwich ELISA); type: cell-based; settings: HEK293 cells, compound cultured for two hours
Chain of p-BTK (C481S) (Q06187 whole entry C481S): as the sequence (Q06187 whole entry) above, with C481S counted along it
Procedure: as §1

BTK (C481S) = BTK (C481S) (Homo sapiens (Human), UniProt Q06187, C481S); test: BTK C481S enzyme experiment (ADP-Glo kinase assay); type: biochemical; settings: 10 nM BTK C481S, ATP 125 μM, Poly(Glu4, Tyr1), 90 minutes at 20° C.
Chain of BTK (C481S) (Q06187 whole entry C481S): as the sequence (Q06187 whole entry) above, with C481S counted along it
Summary of the method: as §2

SMILES	IC50 (OCI-LY10 cells)	IC50 (p-BTK (WT))	IC50 (BTK)	IC50 (TMD-8 cells)	IC50 (p-BTK (C481S))	IC50 (BTK (C481S))
CN1CC[C@]2(C1)Nc1c(cnc3[nH]cc(C(=O)c4ccc(Oc5ccccc5)cc4Cl)c13)NC2=O (single isomer, unassigned) [Z2-1]	200 nM	29.2 nM	19 nM	123 nM	50 nM	9.2 nM
CN1CC[C@@]2(C1)Nc1c(cnc3[nH]cc(C(=O)c4ccc(Oc5ccccc5)cc4Cl)c13)NC2=O (single isomer, unassigned) [Z2-2]	307 nM	41.5 nM	25.4 nM	266 nM	56.6 nM	10.9 nM
CN1CCC2(C1)Nc1c(cnc3[nH]cc(C(=O)c4ccc(Oc5ccccc5)cc4Cl)c13)NC2=O (stereo not drawn) [Z2]	238 nM	123 nM	19.4 nM	188 nM	72.8 nM	12.3 nM
